Results reported in US20260001834A1, “COMPOUND OR SALT THEREOF, LIPID COMPOSITION, PHARMACEUTICAL COMPOSITION, AND DELIVERY CARRIER” (FUJIFILM Corporation, priority 2023, published 2026).

Experiments:
[1] = Particle diameter and polydispersity index (PdI) of mRNA-encapsulating lipid nanoparticles; format: physicochemical; conditions: EPO mRNA-encapsulating lipid nanoparticles, compound:DSPC:cholesterol:DMG-PEG2000=50:10:38.5:1.5; diluted with PBS
Method: (§1) The compounds shown in Table 9, 1,2-distearoyl-sn-glycero-3-phosphocholine (product name: COATSOME® MC-8080; NOF corporation) (hereinafter, DSPC), cholesterol (product name: Cholesterol HP; Nippon Seika Co., Ltd.), and 1,2-dimyristoyl-rac-glycero-3-(methylpolyoxyethylene 2000) (hereinafter, DMG-PEG2000) (product name: SUNBRIGHT® GM-020; NOF corporation) were dissolved in ethanol at a molar ratio (mol %) of compounds shown in Table 9:1,2-distearoyl-sn-glycero-3-phosphocholine:cholesterol:DMG-PEG2000=50:10:38.5:1.5 such that the total lipid concentration was 12.5 mmol/L, thereby obtaining an oil phase.
(§2) EPO mRNA (product name: CleanCap EPO mRNA (5moU); TriLink) was diluted with 50 mmol/L citrate buffer having a pH 4.0 such that the weight ratio of total lipid concentration to mRNA concentration is about 20:1, thereby obtaining a water phase. Then, the water phase and the oil phase were mixed together using NanoAssemblr (Precision NanoSystems) such that the volume ratio of water phase:oil phase was 3:1, and the mixed solution was 2-fold diluted with phosphate buffered physiological saline (PBS) or water, thereby obtaining a dispersion liquid of mRNA lipid nanoparticles. The dispersion liquid was dialyzed with 20 mM Tris buffer solution containing 8% sucrose using a dialysis cassette (Slide-A-Lyzer G2, MWCO: 10 kD, Thermo Fisher Scientific) to remove ethanol, thereby obtaining EPO mRNA-encapsulating lipid nanoparticles.
The particle diameter and the polydispersity index (PdI) of the mRNA-encapsulating lipid nanoparticles were obtained by measuring a dispersion liquid of lipid nanoparticles diluted with phosphate buffered physiological saline (PBS) using a particle size analyzer NanoSAQLA (Otsuka Electronics Co., Ltd.).

[2] = Encapsulation rate of mRNA in lipid nanoparticles; format: physicochemical; conditions: EPO mRNA-encapsulating lipid nanoparticles, compound:DSPC:cholesterol:DMG-PEG2000=50:10:38.5:1.5
Method: as §1, §2
<Evaluation of Encapsulation Rate of mRNA> (Quantification of Total mRNA Concentration)
EPO mRNA was diluted with MilliQ water to prepare a diluted sample in 2-fold dilution series from 100 μg/mL to 3.1 μg/mL, and a standard solution for calibration was prepared. 50 μL of the standard solution for calibration or the mRNA lipid nanoparticles was mixed with 450 μL of methanol to prepare a measurement solution.
The absorbance of each measurement solution at 260 nm and 330 nm was measured using a UV plate reader (Multiskan Go, Thermo Fisher Scientific), the absorbance at 330 nm was subtracted from the absorbance at 260 nm, and the result was used as the absorbance of each measurement solution. The total water phase nucleic acid concentration was calculated from the calibration curve using the absorbance of each sample measurement solution.
(Quantification of mRNA Concentration in Outer Water Phase)
The concentration of the outer water phase nucleic acid was quantified by a standard addition method using a QuanT-iT RiboGreen RNA Assay Kit (Thermo Fisher Scientific). First, a 20×TE buffer included in the above kit was diluted with water, thereby obtaining a 1×TE buffer. TE represents Tris/EDTA (ethylenediaminetetraacetic acid). EPO mRNA was diluted with a TE buffer such that the final concentration was 0 to 400 ng/mL to prepare a nucleic acid diluted series. 10 μL of mRNA lipid nanoparticles diluted 5-fold with TE buffer and 90 μL of a nucleic acid dilution series were mixed in a 96-well plate, 100 μL of a Ribogreen reagent diluted 200-fold with TE buffer was added to each well, and then fluorescence (excitation wavelength: 485 nm, fluorescence wavelength: 535 nm) was measured using a fluorescence plate reader (Infinite 200 Pro M nano+, TECAN). From the obtained results, the outer water phase nucleic acid concentration of each measurement solution was calculated according to the standard addition method.
(Calculation of Encapsulation Rate)
By using the quantification results of the total mRNA concentration and the mRNA concentration in the outer water phase that were obtained through the above steps, the mRNA encapsulation rate of the mRNA lipid nanoparticles was calculated according to the following Equation.

[3] = tested on: ICR mice; experiment: EPO expression level in mice after intravenous EPO mRNA lipid nanoparticles (human EPO ELISA of plasma); format: in vivo; conditions: mRNA dosage 0.1 mg/kg, plasma 6 hours after administration, Comparative Example set to 1
Method: as §1, §2
The dispersion liquid of mRNA lipid nanoparticles prepared in above <Preparation of EPO mRNA-encapsulating lipid nanoparticles> was intravenously administered to ICR mice at a mRNA dosage of 0.1 mg/kg. 6 hours after the administration, blood was collected from the caudal vena cava, thereby obtaining plasma. The human EPO […] was quantified by using the obtained blood plasma and Erythropoietin (EPO) Human Elisa Kit (Abcam.plc). The quantitative value is described as a relative amount of EPO protein in a case where Comparative Example is set to 1.

Compound	Particle diameter (nm) [1] [nm]	PdI [1]	Nucleic acid encapsulation rate [2] [%]	Relative amount of EPO protein (with respect to Comparative Example 1) [3]
CCCCCCCOC(=O)CCCCC(CCCCCC)OC(=O)OCCN(CCCN(CC)CC)CCOC(=O)C(CCCCCC)CCCCCC (centres unmarked) [Compound 21, heptyl 3-ethyl-13-hexyl-7-(2-((2-hexyloctanoyl)oxy)ethyl)-11-oxo-10,12-dioxa-3,7-diazaoctadecan-1 8-oate]	129	0.12	89	1.65
CCCCCCCCCC(CCCCCCCCC)C(=O)OCCN(CCOC(=O)OC(CCCCCC)CCCC(=O)OCCCCCCC)CCN(CC)CC (centres unmarked) [Compound 17, heptyl 3-ethyl-12-hexyl-6-(2-((2-nonylundecanoyl)oxy)ethyl)-10-oxo-9,11-dioxa-3,6-diazahexadecan-16-oate]	79	0.15	95	1.91
CCCCCCCCC(CCCCCCCC)C(=O)OCCN(CCOC(=O)OC(CCCCCC)CCCC(=O)OCCCCCCC)CCN(CC)CC (centres unmarked) [Compound 4, heptyl 3-ethyl-12-hexyl-6-(2-((2-octyldecanoyl)oxy)ethyl)-10-oxo-9,11-dioxa-3,6-diazahexadecan-1 6-oate]	85	0.12	90	3.09
CCCCCCCOC(=O)CCCC(CCCCCC)OC(=O)OCCN(CCCN(CC)CC)CCOC(=O)C(CCCCCC)CCCCCC (centres unmarked) [Compound 20, heptyl 3-ethyl-13-hexyl-7-(2-((2-hexyloctanoyl)oxy)ethyl)-11-oxo-10,12-dioxa-3,7-diazaheptadecan-17-oate]	137	0.10	87	1.68
CCCCCCCCOC(=O)CCCC(CCCCCC)OC(=O)OCCN(CCOC(=O)C(CCCCCCC)CCCCCCC)CCN(CC)CC (centres unmarked) [Compound 7, octyl 3-ethyl-6-(2-((2-heptylnonanoyl)oxy)ethyl)-12-hexyl-10-oxo-9,11-dioxa-3,6-diazahexadecan-16-oate]	82	0.12	79	3.82
CCCCCCCOC(=O)CCCC(CCCCCC)OC(=O)OCCN(CCOC(=O)CC(CCCCCCC)CCCCCCC)CCN(CC)CC (centres unmarked) [Compound 6, heptyl 3-ethyl-6-(2-((3-heptyldecanoyl)oxy)ethyl)-12-hexyl-10-oxo-9,11-dioxa-3,6-diazahexadecan-16-oate]	98	0.11	77	4.91
CCCCCCCOC(=O)CCCCC(CCCCCC)OC(=O)OCCN(CCCN(CC)CC)CCOC(=O)C(CCCCCCC)CCCCCCC (centres unmarked) [Compound 22, heptyl 3-ethyl-7-(2-((2-heptylnonanoyl)oxy)ethyl)-13-hexyl-11-oxo-10,12-dioxa-3,7-diazaoctadecan-18-oate]	95	0.10	94	6.09
CCCCCCCC(CCCCCCC)CC(=O)OCCN(CCOC(=O)OC(CCCCCC)CCCC(=O)OCC(CCCCC)CCCCC)CCN(CC)CC (centres unmarked) [Compound 9, 2-pentylheptyl 3-ethyl-6-(2-((3-heptyldecanoyl)oxy)ethyl)-12-hexyl-10-oxo-9,11-dioxa-3,6-diazahexadecan-16-oate]	77	0.13	85	2.30
CCCCCCCCOC(=O)CCCCCCCCC(CCCCCC)OC(=O)OCCN(CCOC(=O)C(CCCC)CCCCCC)CCN(CC)CC (centres unmarked) [Compound 1, octyl 6-(2-((2-butyloctanoyl)oxy)ethyl)-3-ethyl-12-hexyl-10-oxo-9,11-dioxa-3,6-diazahenicosan-21-oate]	112	0.03	89	–
